# Experimental data taken from US20050113309A1, “Crystalline forms(2s)-n-5[amino(imino)methyl]-2-thienylmethyl-1-(2r)-2[(carboxymethyl) amino]-3,3-diphenylpropanoyl-2-pyrrolidinecarboxamide nh2o” (priority 2002, published 2005).
# “Also recorded” adds a separate entry of the source.
# Assays:
# [1] = Powder X-ray diffraction during moisture absorption and dehumidification (crystal form stability to relative humidity); assay type: physicochemical; details: moisture absorption / relative humidity 33-93%
# Procedure: 40 mg of the above crystalline Form I was thinly coated onto a sample holder. And, immediately after the sample was dried under vacuum in the presence of P2O5, and after the sample was placed for moisture absorption at each relative humidity of 33%, 53%, 64%, 75%, and 93% for two days or more, respectively, the powder X-ray diffraction test was conducted on the sample according to the conditions represented in above Test example 1 to observe change of the crystalline formi during moisture absorption. While lowering the relative humidity, the same test was repeated to observe change of the crystalline form during dehumidification.
# In order to obtain each relative humidity above, as shown in the table below, saturated aqueous solutions of salts were prepared, then placed in a desiccator, and the desiccator was sealed.
# 40 mg of the above crystalline Form IV was thinly coated onto a sample holder. Immediately after the sample was dried under vacuum in the presence of P2O5, and after the sample was placed for moisture absorption at each relative humidity of 33%, 53%, 64%, 75%, and 93% for two days or more, respectively, the powder X-ray diffraction test of the sample was conducted according to the conditions represented in Test example 1 above to observe change of the crystalline form during moisture absorption. While lowering the relative humidity, the same test was repeated to observe change of the crystalline form during dehumidification.
# In order to obtain each relative humidity above, as shown in Table 3 of Test example 2, saturated aqueous solutions of salts were prepared and then placed in a desiccator, and the desiccator was sealed.
# [2] = Stress stability test (storage at −20° C., 50° C., 70° C. for 4 weeks); assay type: physicochemical; details: for Discoloration / change in appearance: 4 weeks' storage; for Stability compared with the amorphous form / Color: stress stability test; for Color: temperature not given (change in appearance at 70° C.)
# Procedure: In order to compare physicochemical stability among the crystalline Form VI, the crystalline Form I, and the amorphous form prepared in Examples 7, 8, and Comparative Example 1, the stress stability test was conducted by placing their samples at the temperatures of −20° C., 50° C., and 70° C. for 4 weeks.
Compound,Change of crystal structure / crystalline form with relative humidity [1],"Residual rate after 4 weeks ([2]; 50° C., 4 weeks) [%]","Residual rate after 4 weeks ([2]; 70° C., 4 weeks) [%]",Discoloration / change in appearance ([2]; 70° C.),Stability compared with the amorphous form ([2]; 4 weeks),Color ([2]; 4 weeks),"Residual rate after 4 weeks ([2]; −20° C., 4 weeks) [%]","Residual rate after 4 weeks ([2]; 50° C., 4 weeks, listed as amorphous form) [%]","Residual rate after 4 weeks ([2]; 70° C., 4 weeks, listed as amorphous form) [%]","Change in appearance ([2]; −20° C. and 50° C., 4 weeks)","Residual rate after 4 weeks ([2]; −20° C., 4 weeks, listed as amorphous form) [%]"
"N=C(N)c1ccc(CNC(=O)[C@@H]2CCCN2C(=O)[C@H](NCC(=O)O)C(c2ccccc2)c2ccccc2)s1 [Form II, (2S)-N-5-[amino(imino)methyl]-2-thienylmethyl-1-(2R)-2-[(carboxymethyl)amino]-3,3-diphenylpropanoyl-2-pyrrolidinecarboxamide]",changed to the crystalline Form III,–,–,–,–,–,–,–,–,–,–
"N=C(N)c1ccc(CNC(=O)[C@@H]2CCCN2C(=O)[C@H](NCC(=O)O)C(c2ccccc2)c2ccccc2)s1 [Form I, (2S)-N-5-[amino(imino)methyl]-2-thienylmethyl-1-(2R)-2-[(carboxymethyl)amino]-3,3-diphenylpropanoyl-2-pyrrolidinecarboxamide]",–,99,100,stable without discoloration,remarkably superior stability over the amorphous form,Ivory,99,–,–,–,–
"N=C(N)c1ccc(CNC(=O)[C@@H]2CCCN2C(=O)[C@H](NCC(=O)O)C(c2ccccc2)c2ccccc2)s1 [Amorphous form, (2S)-N-5-[amino(imino)methyl]-2-thienylmethyl-1-(2R)-2-[(carboxymethyl)amino]-3,3-diphenylpropanoyl-2-pyrrolidinecarboxamide]",–,96,87,discoloration; also recorded: change in appearance,–,Yellow,96,96,87,did not show any change in appearance,96
"N=C(N)c1ccc(CNC(=O)[C@@H]2CCCN2C(=O)[C@H](NCC(=O)O)C(c2ccccc2)c2ccccc2)s1 [Form V, (2S)-N-5-[amino(imino)methyl]-2-thienylmethyl-1-(2R)-2-[(carboxymethyl)amino]-3,3-diphenylpropanoyl-2-pyrrolidinecarboxamide]",changed into the crystalline Form VI,–,–,–,–,–,–,–,–,–,–
"N=C(N)c1ccc(CNC(=O)[C@@H]2CCCN2C(=O)[C@H](NCC(=O)O)C(c2ccccc2)c2ccccc2)s1 [Form VI, (2S)-N-5-[amino(imino)methyl]-2-thienylmethyl-1-(2R)-2-[(carboxymethyl)amino]-3,3-diphenylpropanoyl-2-pyrrolidinecarboxamide]",crystal structure is not changed under any relative humidity,99,100,–,remarkably superior stability over the amorphous form,Ivory,101,–,–,–,–
"N=C(N)c1ccc(CNC(=O)[C@@H]2CCCN2C(=O)[C@H](NCC(=O)O)C(c2ccccc2)c2ccccc2)s1 [Form IV, (2S)-N-5-[amino(imino)methyl]-2-thienylmethyl-1-(2R)-2-[(carboxymethyl)amino]-3,3-diphenylpropanoyl-2-pyrrolidinecarboxamide]",–,–,–,stable without discoloration,–,–,–,–,–,–,–
